Laboratory results published in ChEMBL document CHEMBL3804762, “Novel indoleflutimide heterocycles with activity against influenza PA endonuclease and hepatitis C virus” (Medchemcomm, 2016).
The source made the active and inactive calls. No cut-off for these calls is given here.

Experiments:
[1] = Lipophilicity, log D of compound; assay type: physicochemical; settings: octanol/water
[2] = Dissociation constant, pKa of compound; assay type: physicochemical
Hepatitis C virus [3] = experiment: Antiviral activity against HCV Con1 infected in human Huh5-2 cells haboring firefly luciferase expressing subgenomic replicon of HCV genotype 1b after 72 hrs by luciferase reporter gene assay; assay type: functional, organism-based, Hepacivirus hominis; settings: isolate Con1, Huh-5-2, 72 h
[4] = Cytotoxicity against human Huh5-2 cells assessed as cell viability after 72 hrs by Alamar blue dye based colorimetric analysis; parameters: species or system Huh-5-2; settings: read-out: LC50
[5] = Cytotoxicity against HEK293T cells assessed as effect on cell morphology after 24 hrs by microscopic analysis; assay type: cell-based, HEK-293T; settings: human
[6] = target: T1, Polymerase acidic protein (Influenza A virus (strain A/X-31 H3N2), UniProt Q9IQ47); experiment: Inhibition of recombinant Influenza A/X-31 virus PA infected in HEK293T cells after 2 hrs by vRNP reconstitution assay; assay type: cell-based, Influenza A virus (A/X-31(H3N2)), HEK-293T
[7] = target: T1, Polymerase acidic protein; experiment: Inhibition of recombinant Influenza A/X-31 virus PA (N-terminal amino acid residue 1-217) transfected in Escherichia coli assessed as endonucleolytic digestion using single-stranded circular DNA plasmid M13mp18 after 2 hrs by ethidium bromide staining based agarose gel electrophoresis; parameters: species or system Influenza A virus (A/X-31(H3N2))
[8] = Selectivity index, ratio of LC50 for human Huh5-2 cells to EC50 for HCV Con1 infected in human Huh5-2 cells haboring firefly luciferase expressing subgenomic replicon of HCV genotype 1b; parameters: species or system Huh-5-2
[9] = target: Polymerase acidic protein (Influenza A virus (A/Puerto Rico/8/1934(H1N1)), UniProt P03433); experiment: Inhibition of Influenza A/PR/8/34 virus PA endonuclease by cap dependent RNA polymerase assay
[10] = target: T2, Nonstructural protein 5A (Hepatitis C virus) (UniProt Q5L478); experiment: Inhibition of HCV NS5A in Huh5-2 replicon cells at 100 uM propidium iodide staining based confocal microscopic analysis; assay type: cell-based; settings: Hepacivirus hominis
T2 sequence (whole entry): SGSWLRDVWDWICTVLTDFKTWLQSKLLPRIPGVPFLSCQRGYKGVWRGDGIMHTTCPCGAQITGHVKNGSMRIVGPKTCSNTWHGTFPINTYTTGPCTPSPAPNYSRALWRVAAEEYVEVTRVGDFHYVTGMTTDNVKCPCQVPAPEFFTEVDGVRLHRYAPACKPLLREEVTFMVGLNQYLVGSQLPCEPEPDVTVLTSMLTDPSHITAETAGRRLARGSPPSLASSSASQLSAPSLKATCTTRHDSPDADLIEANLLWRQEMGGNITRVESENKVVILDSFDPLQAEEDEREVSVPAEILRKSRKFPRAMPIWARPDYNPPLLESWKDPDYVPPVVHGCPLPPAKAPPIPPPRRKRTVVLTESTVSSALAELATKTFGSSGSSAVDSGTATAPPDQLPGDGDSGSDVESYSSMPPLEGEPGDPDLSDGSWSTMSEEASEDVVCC

Hepatitis C virus [11] = experiment: Antiviral activity against HCV Con1 infected in human Huh5-2 cells haboring firefly luciferase expressing subgenomic replicon of HCV genotype 1b at 100 uM after 7 days by luciferase reporter gene assay; assay type: functional, organism-based; settings: Hepacivirus hominis, isolate Con1, Huh-5-2

Compound | logD [1] | pKa [2] | EC50 (Hepatitis C virus [3]) [µM] | CC50 at 72 h [4] [µM] | MCC at 24 h [5] [µM] | EC50 [6] [µM] | IC50 [7] [µM] | Selectivity Index [8] | IC50 [9] [µM] | inhibition [10] | Activity (Hepatitis C virus [11])
O=C1Cn2c(cc3ccccc32)C(=O)N1O | 0.57 | 7.27 | 126 | > 200 | ≥ 500 | 297 | 12.7 | >1.6 | – | – | –
O=C1Cn2c(cc3cc(F)ccc32)C(=O)N1O | 0.71 | 7.27 | 83.8 | > 200 | ≥ 500 | > 500 | 17.3 | >2.4 | – | – | –
O=C(O)C(=O)CC(=O)c1ccccc1 | -1.73 | 2.85 | > 200 | > 200 | – | – | 5.4 | – | – | – | –
COc1ccc2c(c1)cc1n2CC(=O)N(O)C1=O | 0.41 | 7.27 | > 200 | > 200 | ≥ 500 | 48 | 23 | – | – | – | –
O=C1Cc2ccccc2CC(=O)N1O | – | – | – | – | – | – | – | – | > 500 | – | –
O=C1Cn2c(cc3cc(Cl)ccc32)C(=O)N1O | 1.17 | 7.27 | 10.5 | > 200 | ≥ 500 | 114 | 26.9 | >19.1 | – | Active | inactive
O=C1Cn2c(cc3cc(O)ccc32)C(=O)N1O | 0.26 | 7.27 | > 200 | > 200 | ≥ 500 | 75 | 29.2 | – | – | – | –
O=C1Cn2c(cc3ccccc32)C(=O)N1 | 0.75 | 9.3 | > 200 | > 200 | – | – | > 500 | – | – | – | –
